Publication PMC10618445, “Eucalyptus torquata L. flowers: a comprehensive study reporting their metabolites profiling and anti-gouty arthritis potential” (Scientific Reports, 2023)

Columns and labels:
[1] = DPPH radical scavenging assay; settings: mean ± SD, triplicate
Method: DPPH radical scavenging, ABTS radical scavenging and FRAP assays were done according to Dudonne et al.[19] method minor modifications. The details are mentioned in the supplementary file. Briefly, 20 μL of the diluted concentrations of ETME/ standard (0.1575 - 1 mg/mL) were added to 200 μL of 2,2-diphenyl-1-picrylhydrazyl (DPPH) in a 96 well-plate and the absorbance was measured at 517 nm after incubation for 30 min [1] using ascorbic acid as standard. […] was determined using the equation; [(Ac – As) / Ac] × 100. In which, Ac was the control absorbance (DPPH solution without the tested sample) while As was the sample absorbance (DPPH solution in addition to the extract or standard).

[2] = Ferric reducing power assay (FRAP); settings: mean ± SD, triplicate
Method: DPPH radical scavenging, ABTS radical scavenging and FRAP assays were done according to Dudonne et al.[19] method minor modifications. The details are mentioned in the supplementary file. The ferric reducing power of the extract was determined using the method reported previously by Dudonne, et al., 2009 [1]. The reduction is monitored by measuring the change of absorbance at 593 nm. […] A standard curve was prepared using various concentrations of FeSO4 .7H2O. All solutions were used on the day of preparation. A 100 µL of the sample solution and 300 μL of deionized water were added to 3 mL of freshly prepared FRAP reagent. The reaction mixture was incubated in a water bath for 30 min at 37 °C. The difference between sample absorbance and blank absorbance was calculated and used to calculate the FRAP value. All measurements were done in triplicate and the EC50 was calculated. Ascorbic acid is used as standard.

[3] = ABTS radical scavenging assay; settings: mean ± SD, triplicate
Method: DPPH radical scavenging, ABTS radical scavenging and FRAP assays were done according to Dudonne et al.[19] method minor modifications. The details are mentioned in the supplementary file. Briefly, 200 µL of the reaction mixture containing 10 µL extract/ standard at different concentrations (0.1575 - 1 mg/mL) was added to 2,2′-Azino-bis(3-ethylbenzothiazoline-6-sulfonic acid (ABTS) solution (190 µL) then measured at 734 nm in 96 well-plates. The ABTS solution was composed as follows; 5 mL of 14 mM ABTS dissolved in methanol added to 5 mL solution of 4.9 mM potassium persulfate, and subsequently stored for 16 h at room temperature in dark. This solution was diluted with methanol till the absorbance was 0.700.

[4] = test system: protease; test: Protease (proteinase) inhibitory activity; format: biochemical; settings: mean ± SD, triplicate
Method: (§1) Albumin denaturation inhibition was evaluated using the previously described method. Membrane stabilization and proteinase inhibitory potentials were evaluated using the previously reported method. Diclofenac was used as the reference drug. All the experiments were performed in triplicate.

[5] = test system: red blood cell membranes; test: Membrane stabilization; format: cell-based; settings: mean ± SD, triplicate
Method: as §1
Denaturation of tissue proteins is well documented in the pathogenesis of inflammatory events like arthritis. The protection against protein denaturation is one of NSAIDs mechanisms of action. In addition, red blood cell hemolysis inhibition may provide insights into the process of inflammation. Stabilization of the red blood cell membranes may delay or prevent the lysis and the consequent cytoplasmic contents release and the inflammatory response. So, plants that can interfere with these responses could be very useful for developing novel anti-arthritic drugs. Natural extracts from other Eucalyptus species produced similar albumin denaturation and cell membrane stabilization activities including E. obliqua leaves, E. sideroxylon bark[9] and E. globulus leaves.

[6] = test system: U937 human monocytes; test: Histamine release inhibitory activity (PMA-treated cells, ELISA); format: cell-based; settings: 20 nM PMA, 1 h, mean ± SD
Method: U937 human monocytes (ATCC, Manassas, VA, USA) were used to study the effect of the extract on histamine release. U937 cells (50,000 cells) were plated in a 96-well plate and treated with various concentration (1000–7.81 µg/mL) of the extract, in presence or absence of 20 nM phorbol myristate acetate (PMA) for 1 h. The cell culture supernatants collected from either untreated control or treated cultures were centrifuged at 10,000 g for 5 min at 4 °C and assessed for the released histamine by the commercially available ELISA kit. Diclofenac was used as the positive control.

[7] = test system: 5-lipoxygenase (5-LOX); test: 5-lipoxygenase inhibitory assay (lipoxygenase inhibitor screening kit); format: biochemical; settings: mean ± SD, triplicate
Excerpt: (§2) Methanol, DPPH (2,2-diphenyl-1-picrylhydrazyl), ABTS (2,2′-Azino-bis (3-ethylbenzothiazoline-6-sulfonic acid)), TPTZ (2,4,6-tri(2-pyridyl)-s-triazine), ascorbic acid, hyaluronic acid (human umbilical cord), sodium hydroxide, hyaluronidase (bovine testes), calcium chloride, p-dimethylaminobenzaldehyde (PDMAB), and sodium borate were purchased from Sigma-Aldrich (USA). COX (ovine) and LOX inhibitor screening assay kits (Cayman Chemical Company, MI, USA), 96-well cell culture plate (Corning Life Sciences, Lowell, MA, USA), PMA (Sigma-Aldrich, St. Luis, MO, USA), and histamine release assay kit (SPI-Bio, France) were used.
The COX inhibitory activity was assayed using Cayman colorimetric COX (ovine) inhibitor screening assay kit, according to the manufacturer’s instructions. The selectivity index (S.I.) was then calculated as IC50 (COX-1)/IC50 (COX-2). In vitro 5-lipoxygenase (5-LOX) inhibitory assay was carried out using lipoxygenase inhibitor screening assay kit, according to the manufacturer’s instructions. Diclofenac sodium was used as a reference drug.

[8] = target: xanthine oxidase (XO) (Bos taurus, UniProt P80457); test: Xanthine oxidase (XO) inhibitory activity; format: biochemical; settings: mean ± SD, triplicate; read-out: Xanthine oxidase IC50/EC50 (converted)
Method: The XO inhibitory activity was assayed following the protocol reported in[22]. Detailed procedures are described in the supplementary file. The XO inhibitory activity was assayed following the protocol reported in [2]. Five hundred µL of different concentrations of ETME/ standard (10- 100 µg/mL) were added to the enzyme solution (1.3 mL of phosphate buffer at concentration of 65 mM and pH 7.4 containing 0.28 U/mL of XO). Then the mixture was incubated for 10 min at 30 ℃. Next, 1.4 mL of the substrate xanthine (0.6 mM) was added to the mixture. The absorbance was measured at every minute for 10 min at 295 nm. Allopurinol was used as the standard drug. The percentage inhibition of XO was calculated as: % inhibition = (1 – Absorbance of sample/ Absorbance of blank) x 100. The IC50 value was calculated from the calibration curve.

[9] = test system: tyrosinase; test: Tyrosinase inhibition assay with L-DOPA as substrate; format: biochemical; settings: mean ± SD
Method: Tyrosinase inhibition assay was performed with L-DOPA as substrate adopting the previously described method. Detailed procedures are described in the supplementary file.
Tyrosinase inhibition assay was performed with L-DOPA as substrate adopting the method reported in [3]. In a 96-plate, 685 μL of phosphate buffer (0.05 M, pH 6.5), 15 μL of tyrosinase enzyme (2500 U /mL), 200 μL of ETME (7.81–1000 µg/mL) and 100 μL of 5 mM/L L-DOPA were added. The absorbance was immediately monitored at 492 nm. Kojic acid was used as the positive control. The assay was made in triplicate. The percentage inhibition was calculated as follows: % of inhibition = (Acontrol/Atested sample)/ Acontrol) x 100. Where, Acontrol is the absorbance without the addition of the inhibitor and Asample is the absorbance after adding the standard.

[10] = test system: hyaluronidase (bovine testes); test: Hyaluronidase inhibitory activity; format: biochemical; settings: mean ± SD, triplicate
Excerpt: as §2
Hyaluronidase inhibitory activity of ETME was evaluated spectrophotometrically as reported by Perera et al.[24] with minor modifications. Detailed procedures are described in the supplementary file.
Hyaluronidase inhibitory activity of ETME was evaluated spectrophotometrically as reported by Perera et al., 2018 with minor modifications. […]. The percentage of enzyme inhibition was calculated as follows:
% of inhibition = (Acontrol/Atested sample)/ Acontrol) x 100.
Where Acontrol is the absorbance without addition of the inhibitor and Asample is the absorbance after adding the extract/standard. The IC50 value, the concentration giving 50% inhibition of hyaluronidase activity, was determined by interpolation using the concentration-response curves. […]

xanthine oxidase (XO), sequence (P80457 whole entry): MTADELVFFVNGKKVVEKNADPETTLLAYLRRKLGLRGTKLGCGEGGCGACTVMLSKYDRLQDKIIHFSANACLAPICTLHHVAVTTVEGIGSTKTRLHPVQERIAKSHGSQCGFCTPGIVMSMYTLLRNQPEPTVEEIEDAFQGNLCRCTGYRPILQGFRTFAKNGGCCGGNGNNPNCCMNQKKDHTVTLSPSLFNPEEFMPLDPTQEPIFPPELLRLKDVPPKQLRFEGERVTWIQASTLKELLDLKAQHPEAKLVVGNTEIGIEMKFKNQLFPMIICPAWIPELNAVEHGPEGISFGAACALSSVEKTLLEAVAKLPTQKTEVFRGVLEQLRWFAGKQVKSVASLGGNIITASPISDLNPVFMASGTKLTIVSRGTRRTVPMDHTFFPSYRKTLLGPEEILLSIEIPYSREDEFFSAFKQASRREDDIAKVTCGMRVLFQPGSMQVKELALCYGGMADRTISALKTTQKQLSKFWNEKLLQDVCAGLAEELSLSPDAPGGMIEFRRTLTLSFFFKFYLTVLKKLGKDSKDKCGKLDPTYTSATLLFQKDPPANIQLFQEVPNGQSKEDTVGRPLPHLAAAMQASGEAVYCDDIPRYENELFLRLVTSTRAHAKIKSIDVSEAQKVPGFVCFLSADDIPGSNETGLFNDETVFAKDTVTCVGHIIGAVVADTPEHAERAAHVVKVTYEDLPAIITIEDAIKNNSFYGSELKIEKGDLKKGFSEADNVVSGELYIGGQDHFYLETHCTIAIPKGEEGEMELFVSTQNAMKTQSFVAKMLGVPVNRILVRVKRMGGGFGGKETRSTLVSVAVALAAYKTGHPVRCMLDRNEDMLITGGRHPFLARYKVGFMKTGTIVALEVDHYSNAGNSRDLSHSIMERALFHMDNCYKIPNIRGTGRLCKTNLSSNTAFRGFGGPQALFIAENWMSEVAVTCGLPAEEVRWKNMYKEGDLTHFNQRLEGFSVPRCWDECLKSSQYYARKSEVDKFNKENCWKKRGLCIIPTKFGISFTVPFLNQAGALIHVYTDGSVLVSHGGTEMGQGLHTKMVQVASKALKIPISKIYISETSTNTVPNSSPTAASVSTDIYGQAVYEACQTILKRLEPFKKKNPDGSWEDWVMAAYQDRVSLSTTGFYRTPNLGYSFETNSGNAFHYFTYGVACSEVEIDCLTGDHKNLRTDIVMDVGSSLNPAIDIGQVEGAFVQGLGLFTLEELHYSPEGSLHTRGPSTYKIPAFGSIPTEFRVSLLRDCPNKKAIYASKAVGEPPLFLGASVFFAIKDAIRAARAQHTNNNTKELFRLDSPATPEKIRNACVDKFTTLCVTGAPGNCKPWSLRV

Compound: O=C1O[C@H]([C@@H](O)CO)C(O)=C1O [Ascorbic acid, ascorbic acid]
- DPPH IC50/EC50 [1]: 2.2 ± 1.6 µg/mL
- FRAP IC50/EC50 [2]: 3.9 ± 1.9 µg/mL
- ABTS IC50/EC50 [3]: 21.4 ± 1.6 µg/mL

Compound: O=C(O)Cc1ccccc1Nc1c(Cl)cccc1Cl [Diclofenac]
- Protease IC50/EC50 [4]: 25.14 ± 1.2 µg/mL
- Membrane stabilization IC50/EC50 [5]: 17.02 ± 1.3 µg/mL
- Histamine release IC50/EC50 [6]: 17.94 ± 1.4 µg/mL

Compound: COc1ccc2c(c1)c(CC(=O)O)c(C)n2C(=O)c1ccc(Cl)cc1 [Indomethacin]
- LOX IC50/EC50 [7]: 23.4 ± 0.83 µg/mL

Compound: O=c1[nH]c(=O)c2c[nH]nc2[nH]1 [Oxypurinol]
- IC50 [8]: 96.6 µM

Compound: O=c1cc(CO)occ1O [Kojic acid]
- Tyrosinase IC50/EC50 [9]: 52.0 ± 0.98 µg/mL

Compound: O=C([O-])CC([S-])C(=O)[O-].[Au+].[Na+].[Na+] (stereo not shown) [Sodium aurothiomalate]
- Hyaluronidase IC50/EC50 [10]: 20.03 ± 0.96 µg/mL
